Results as given in patent US5077312A, “Biologically active lipids binding membrane receptors” (priority 1990, dated 1991).
“And” between values parts separate entries of the source, which are not always exact repeats. Equal entries are not always repeated.

What was measured:
[1] = tested on: PDBu receptor (phorboid receptor) of murine brain membranous fraction (BMF); experiment: PDBu binding inhibiting activity (PBIA): inhibition of 3H-PDBu binding to murine brain membranous fraction; design: species or system murine (mouse, NFS strain)
Description: Pooled murine brains from approximately 2 month old mice, NFS strain, were minced with scissors, suspended in 1 mM triethanolamine-HCl, pH 7.4, and disrupted with a polytron P-10 (Brinkman). This and all subsequent steps were performed at 4° C. The homogenate was centrifuged for 10 minutes at 1700 xg; the supernate was removed and centrifuged for 60 minutes at 105,000 xg. The resulting pellet was suspended in one-fourth of the initial volume of PBS. The suspension was aliquoted into a small volume and stored at -70° C.
The binding of ^3 H-PDBu to BMF or soluble receptors was performed in duplicate in 12×75 mm disposable glass tubes (Kimax) both in the absence and presence of 20 μg/ml unlabeled PDBu; the binding mixture contained 5 ng of ^3 H-PDBu (4×10^4 cpm), 0.2% final concentration of DMSO and BMF (50 μg protein) or soluble receptors in a total volume of 0.25 ml binding buffer (BB) consisting of Dulbecco's minimum essential medium (DMEM) containing bovine serum albumin (BSA 1 mg/ml) and N,N,-bis-(2-hydroxyethyl)-2-amino-ethane sulfonic acid (BES, 5 mM), adjusted to pH 6.8. After incubation for 30 minutes at 23° C. the tubes were chilled, 0.5 ml cold 4% calf serum (Colorado Serum Co., Denver, Colo.) and 0.7 ml cold polyethylene glycol (PEG 6,000) in 1 mM Tris-HCl, pH 7.4 was added to each tube, the contents vortexed, the tubes allowed to stand for 15 min at 4° C., and centrifuged for 10 in at 1500 xg at 4° C. The supernatant solution was carefully aspirated off, the pellet suspended in 2.5 ml of cold 10% PEG in 0.1M Tris-HCl, pH 7.4, containing 0.5% SDS and 1 mM EDTA). The mixture was transferred to counting vials and 10 ml of Aquassure (NEN) was added to each vial. The vials were vigorously shaken and radioactivity determined using a Beckman beta counter. The radioactivity bound in the presence of 20 μg/ml (50-200 cpm) unlabeled PDBu was considered to be nonspecific and all data were corrected accordingly.
The loss of the ability of ^3 H-PDBu to bind to receptors in the presence of ligand was used as the measure of inhibiting activity. PDBu binding inhibition assays were performed as described above, except the test materials were added to the reaction mixture and binding measured as described above.
The PBIA of ligand was equated with that of PDBu by the use of the term ng equivalent calculated from a plot of [^3 H]PDBu bound versus the log molar concentration for several biologically active phorbol esters (2). The curve corresponding to PDBu inhibition of PDBu binding was used by reading the molar concentration corresponding to the percent of control binding of [^3 H]PDBu in the presence of ligand to obtain the units ng PDBu equivalent of ligand.

arachidonic acid cascade = experiment: Stimulation of arachidonic acid cascade: release of radioactivity from cells labeled with radioactive arachidonic acid; format: cell-based
Source text: (§1) The release of radioactivity into the medium from cells previously labeled with radioactive arachidonic acid was used as a measure of activation of eicosanoids pathway. […] PBIL from all sources inhibited PDBu-receptor interaction.

[2] = tested on: arachidonic acid cascade in mink lung cells; experiment: Activation of arachidonic acid cascade in mink lung cells; format: cell-based
Source text: as §1

[3] = tested on: purified phorboid receptor (serine-protein kinase); experiment: Protein kinase activity of purified phorboid receptor; format: biochemical, murine
Description: In the final volume of 0.25 ml, the reaction mixture in duplicate contained 5 μmol Tris-HCl (pH 7.4), 1 μmol MgCl2, 50 μg histone, 0.12 nmol [-^32 P] ATP (8×10^6 cpm at arrival) and an appropriate amount of purified receptor protein. The reaction was carried out for 15 min at 23° C. The phosphorylated proteins were precipitated with 5% cold TCA, using BSA (250 μg) as carrier. The mixture in the tubes was allowed to settle at 4° C. for 15-30 min. Precipitates were collected on cellulose nitrate filters (0.45 μm) and washed with 75 ml of cold 5% TCA. Filters were dried and counted in Betafluor scintillation fluid.
Purified phorboid receptor from murine brain was purified to homogeneity and shown that the purified receptor is a serine-protein kinase (Shoyab, Cell Proliferation (CSH Laboratory) (1984) 11:253-262). The effect of PBIL on this protein kinase was tested. […] At higher concentration the kinase activity was inhibited (Table 4).
The assay conditions were the same as described in the text except the indicated amount of PBIL and 25 ng of purified receptor protein (Shoyab, Cell Proliferation (CSH Laboratory) (1984) 11:253-262) were used.

[4] = concentration 0.8 (unit not given)
[5] = concentration 0.2 (unit not given)
[6] = concentration 0.4 (unit not given)

Structure (SMILES) | Inhibition of binding of PDBu to its receptor [1, 4] | Inhibition of binding of PDBu to its receptor [1, 6] [%] | other results
CCCCC/C=C\C/C=C\C/C=C\C/C=C\CCCC(=O)OCC(O)CO (stereo not drawn) [1-Monoarachidonin, 1-monoarachidonin] | 95% | 91 | Stimulation of arachidonic acid cascade (release of radioactivity into the medium) (arachidonic acid cascade): stimulate the arachidonic acid cascade; Inhibition of / competition for PDBu binding to receptor (in words) [1]: compete with phorbol dibutyrate for its receptor; Inhibition of binding of PDBu to its receptor [1, 5]: 41%
CC/C=C\C/C=C\C/C=C\CCCCCCCC(=O)OCC(O)CO (stereo not drawn) [1-Monolinolenin, 1-monolinolenin] | 94% | 74 | Inhibition of binding of PDBu to its receptor [1, 5]: 27%
CCCCCCCC/C=C\CCCCCCCC(=O)OCC(O)COC(=O)CCCCCCC/C=C\CCCCCCCC [1,3-Diolein, reference compound] | 11% |  | 
CCCCCCCC/C=C\CCCCCCCC(=O)OCC(O)CO (stereo not drawn) [1-Monoolein, 1-monoolein] | 63% | 21 | 
CCCCCCCC/C=C\CCCCCCCC(=O)OCC(CO)OC(=O)CCCCCCC/C=C\CCCCCCCC (stereo not drawn) [1,2-Diolein, reference compound] | 20% |  | 
CCCCCCCCCCCCCCCC(=O)OCC(O)COC(=O)CCCCCCCCCCCCCCC [1,3-Dipalmitin, reference compound] | -12% |  | 
CCCCCCCCCCCCCC(=O)O[C@@H]1[C@@H](C)[C@@]2(O)[C@@H](C=C(CO)C[C@]3(O)C(=O)C(C)=C[C@@H]23)[C@@H]2C(C)(C)[C@]12OC(C)=O [TPA, 12-0-tetradecanoylphorbol-13-acetate] |  |  | Stimulation of protein kinase activity (in words) [3]: stimulated the kinase activity
CCCCC/C=C\C/C=C\CCCCCCCC(=O)OCC(O)COC(=O)CCCCCCC/C=C\C/C=C\CCCCC [1,3-Dilinolein, reference compound] | 15% |  | 
CCCCCCCCCCCCCC(=O)OCC(O)COC(=O)CCCCCCCCCCCCC [1,3-Dimyristin, reference compound] |  | 1 | 

Continued, in another order:

Inhibition of binding of PDBu to its receptor [1, 4] | Inhibition of binding of PDBu to its receptor [1, 6] [%] | Structure (SMILES) | other results
-1% |  | CCCCC/C=C\C/C=C\CCCCCCCC(=O)OCC(COC(=O)CCCCCCC/C=C\C/C=C\CCCCC)OC(=O)CCCCCCC/C=C\C/C=C\CCCCC [Trilinolein, reference compound] | 
 | 11 | CCCCCCCCCCCC(=O)OCC(COC(=O)CCCCCCCCCCC)OC(=O)CCCCCCCCCCC [Trilaurin, reference compound] | 
 | 15 | CCCCCCCCCCCCCC(=O)OCC(COC(=O)CCCCCCCCCCCCC)OC(=O)CCCCCCCCCCCCC [Trimystrin, reference compound] | 
94% | 82 | CCCCC/C=C\C/C=C\CCCCCCCC(=O)OC[C@@H](O)CO [1-Monolinolein, 1-monolinolein] | Stimulation of arachidonic acid cascade (release of radioactivity into the medium) (arachidonic acid cascade): stimulate the arachidonic acid cascade; Activation of arachidonic acid cascade [2]: activated the arachidonic acid cascade in mink lung cells in a dose- and time-dependent manner; Inhibition of / competition for PDBu binding to receptor (in words) [1]: compete with phorbol dibutyrate for its receptor; Inhibition of binding of PDBu to its receptor [1, 5]: 39%
-8% | -11 | CCCCCCCCCCCCCCCC(=O)OCC(COC(=O)CCCCCCCCCCCCCCC)OC(=O)CCCCCCCCCCCCCCC [Tripalmitin, reference compound] | 
-6% and -15% |  | CCCCCCCCCCCCCCCC(=O)OCC(O)CO (stereo not drawn) [1-Monopalmitin, 1-monopalmitin] | 
15% | 10 | CCCCC/C=C\C/C=C\CCCCCCCC(=O)O [Linoleic acid-Na, reference compound] | 
 | 0 | OCC(O)CO [Glycerol, reference compound] | 
82% | 36 | CCCCCC/C=C\CCCCCCCC(=O)OCC(O)CO (stereo not drawn) [1-Monopalmitolein, 1-monopalmitolein] | Stimulation of arachidonic acid cascade (release of radioactivity into the medium) (arachidonic acid cascade): stimulate the arachidonic acid cascade; Inhibition of / competition for PDBu binding to receptor (in words) [1]: compete with phorbol dibutyrate for its receptor
 | 0 | CCCCCCCCCCCCCC(=O)OCC(O)CO (stereo not drawn) [1-Monomyristin, reference compound] | 
